Values of other authors, collected in US20220280463A1, “PHARMACEUTICAL FORMULATIONS COMPRISING DICLOFENAC” (FTF PHARMA PRIVATE LIMITED, priority 2019, published 2022).

Tested on: erythrocytes
Conditions: aqueous solution of 2% propylene glycol, in 45 min

CC(O)CO (stereo not shown) [propylene glycol]
haemolysis of erythrocytes: 100%
